Literature values as cited in US5846971A, “Oral antifungal composition” (Schering Corporation, priority 1997, dated 1998).

Legend:
Aspergillis = settings: in suspensions
Cryptococcus = settings: in suspensions
Candida = settings: in suspensions

## CC[C@@H]([C@H](C)O)n1ncn(-c2ccc(N3CCN(c4ccc(OC[C@@H]5CO[C@@](Cn6cncn6)(c6ccc(F)cc6F)C5)cc4)CC3)cc2)c1=O [the antifungal compound, (-)-(2R-cis)-4-[4-[4-[4-[[-5-(2,4-difluorophenyl)-tetrahydro-5-(1H-1,2,4-triazol-1-ylmethyl)furan-3-yl]methoxy]phenyl]-1-piperazinyl]phenyl]-2,-4-dihydro-2-[(S)-1-ethyl-2(S)-hydroxypropyl]-3H-1,2,4-triazol-3-one]
Aspergillis
  antifungal activity: potent antifungal activity
other
  water solubility: extremely low water solubility
Cryptococcus
  antifungal activity: potent antifungal activity
Candida
  antifungal activity: potent antifungal activity
